This note sets out measurements from the NIST ThermoML archive (doi:10.1021/acs.jced.6b00972).

The conditions of data set [1]: Crystal; DTA.
A short description of data set [2]: Molar enthalpy of transition or fusion. The settings on record: Crystal; DSC.

Each structure is given as a SMILES string. ± gives the expanded uncertainty stated by the source.

Take `CCOc1cc(C=O)ccc1O` [3-ethoxy-4-hydroxybenzaldehyde]: the Normal melting temperature in data set [1] came out at 78 ± 1.1 °C. Besides, the “Molar enthalpy of transition or fusion” value in data set [2] is 5.64 ± 1.24 kcal/mol.
